Assay results taken from patent publication US20090209525A1, “ENABLING METHODS TO IDENTIFY ALLOSTERIC MODULATORS OF RECEPTOR ACTIVITY” (priority 2006, published 2009).
Substitutions are numbered along the chain they refer to. Where two headings read alike, the source gives them in different places.

Experiments:
rat M1 Y106A receptor = molecular target: T1, rat M1 Y106A receptor (Rattus norvegicus, UniProt P08482, Y106A); experiment: R-SAT functional assay, Y106A mutant; type: cell-based; conditions: for Shift / EC50 / Eff (%): Table 3; for Shift: EC50 Y106A divided by EC50 wild-type; for Eff (%): maximum response, normalized
T1 construct: expressed in transfected cells
T1 sequence (P08482 1-460 Y106A): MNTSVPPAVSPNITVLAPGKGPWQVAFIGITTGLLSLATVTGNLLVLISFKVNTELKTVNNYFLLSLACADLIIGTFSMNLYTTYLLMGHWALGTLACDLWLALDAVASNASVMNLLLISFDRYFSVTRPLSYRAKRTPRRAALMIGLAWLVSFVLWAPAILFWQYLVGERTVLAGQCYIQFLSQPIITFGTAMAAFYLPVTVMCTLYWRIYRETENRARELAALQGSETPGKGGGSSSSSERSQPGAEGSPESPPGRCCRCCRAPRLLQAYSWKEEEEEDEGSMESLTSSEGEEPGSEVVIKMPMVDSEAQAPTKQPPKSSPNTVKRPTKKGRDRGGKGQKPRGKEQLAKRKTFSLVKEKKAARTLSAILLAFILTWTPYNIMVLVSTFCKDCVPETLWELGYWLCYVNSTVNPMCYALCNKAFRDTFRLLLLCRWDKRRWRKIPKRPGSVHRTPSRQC
Description: Cells are co-transfected for 18 h with DMEM containing 0.08 micrograms/ml of an expression vector for the expression of the mutant receptor and 0.3 micrograms/ml pSI-Bgal (Promega, Madison Wis.), and 0.5% v/v Polyfect (Qiagen, Valencia Calif.), as recommended by the manufacturer. On day three, the medium is replaced with DMEM containing 1% PSG, 0.5% calf serum, 2% cyto-sf3 (Kemp Biotechnologies, Frederick, Md.), and varying concentrations of the compounds to be tested. Cells are grown in a humidified atmosphere with 5% ambient CO2 for 5 days. The media is removed from the plates, and beta-galactosidase activity is measured by the addition of o-nitrophenyl -d-galactopyranoside in phosphate-buffered saline with 5% Nonidet P-40. […] The following equation is fitted to the data using GraphPad Prism software (San Diego, Calif.):
NIH-3T3 cells were grown in 96-well tissue culture plates to 70 to 80% confluence in Dulbecco's modified essential media (DMEM) supplemented with 100 units/ml penicillin, 100 micrograms/ml streptomycin, 0.3 mg/ml L-glutamine (1% PSG, GIBCO) and 10% calf serum (Sigma-Aldrich). Cells were transfected for 18 h with DMEM containing 0.08 micrograms/ml receptor DNA and 0.3 micrograms/ml pSI-Bgal (Promega, Madison Wis.), 0.5% v/v Polyfect (Qiagen, Valencia Calif.). Medium was replaced with DMEM containing 1% PSG, 0.5% calf serum, 2% cyto-sf3 (Kemp Biotechnologies, Frederick, Md.), and varying concentrations of ligand. […] Cells were grown in a humidified atmosphere with 5% ambient CO2 for 5 days. Medium was removed from the plates, and beta-galactosidase activity was measured by the addition of o-nitrophenyl -d-galactopyranoside in phosphate-buffered saline with 5% Nonidet P-40.

[1] = molecular target: T2, CHO-hM1 cell membranes (muscarinic M1 receptor) (Homo sapiens, UniProt P11229); experiment: ^3H-NMS dissociation rate assay; type: binding; conditions: for koff: read-out: koff of ^3H-NMS in the presence of the ligand
T2 construct: expressed in transfected cells; host or cells: CHO-hM1
T2 sequence (P11229 1-460): T1 sequence (P08482 1-460 Y106A) with V5A, A106Y, S254T, S309P, K320R, G337A, V413I
Description: Approximately 10 μg protein was added per well in the assay.

[2] = molecular target: T3, rat M1 wild-type receptor (RM1) (Rattus norvegicus, UniProt P08482); experiment: ^3H-NMS radioligand binding, wild-type; conditions: for Shift: Ki divided by Ki for wild-type (reference)
T3 construct: expressed in transfected cells
T3 sequence (P08482 1-460): T1 sequence (P08482 1-460 Y106A) with A106Y
Description: Briefly, cell homogenates are prepared from cells transiently or stably expressing wild type or mutant receptors. For transiently transfected cells, HEK cells are transfected with receptor of interest and cells harvested 48 hours post transfection. Cells expressing the receptor, stably or transiently, are harvested using phosphate buffered saline containing 5 mM EDTA, cells centrifuged at low speed and pellet re-suspended in binding buffer. Cell suspension is polytroned and centrifuged at 15,000×g. The pellet is resuspended in binding buffer and centrifugation repeated two more times. The washed cell homogenates are used for the competition binding assays. Competition binding assays are carried out in the presence of fixed amount of cell homogenate, fixed concentration of radioactively labeled orthosteric or allosteric ligand and varying concentrations of the cal under study using appropriate buffer. Incubations are carried out at room temperature for 2 hours. Incubations are terminated by filtration onto GF/B filters using Packard cell harvester followed by 3 washes with ice-cold buffer. Radioactivity retained on the filters is quantitated using Packard Top Count using Microscint 20 scintillation fluid. […] The membranes prepared above are incubated with a labeled ligand in 25 mM sodium phosphate, 5 mM magnesium chloride, 0.01% BSA two hours at room temperature. The binding reaction is stopped by rapid filtration onto GF/B filters. […] The pKd values (pKd=−log Kd) of the labeled ligand are calculated.
Radioligand binding assays were carried out in 25 mM sodium phosphate, 5 mM magnesium chloride, 0.01% BSA. Incubations were for two hours at room temperature, and reactions were stopped by rapid filtration onto GF/B filters.

[3] = atropine-induced dissociation, result in words

Row | SMILES | Shift (rat M1 Y106A receptor) | EC50 (rat M1 Y106A receptor; Y106A) [nM] | Eff (%) (rat M1 Y106A receptor; Y106A) | effect on dissociation rate of ^3H-NMS [1] | koff [1] [s⁻¹] | IC50 [2] [nM] | Shift [2] | effect on dissociation rate of ^3H-NMS [1, 3] | Emax (rat M1 Y106A receptor; R-SAT, Y106A, read-out: increase of maximum response over response at wild-type) [%]
1 | CCCCC1CCN(CCCC(=O)c2ccccc2C)CC1 [AC-42, 4-n-butyl-1-[4-(2-methylphenyl)-4-oxo-1-butyl] piperidine hydrogen chloride] | >8 | > 1000 | >30 ± — % | significantly retarded | 0.00175 | 5010 | 1 |  | 
2 | CCCCC1CCN(CCCN2C(=O)COc3cc(F)ccc32)CC1 [AC-260584, 4-[3-(4-Butyl-piperidin-1-yl)-propyl]-7-fluoro-4H-benzo [1,4]oxazin-3-one] | 6 | 79.4 | 69 ± 3% |  | 0.0015 | 1260 | 1 | significantly retarded | 
3 | Clc1ccc2c(c1)N=C(N1CCNCC1)c1ccccc1N2 [NDMC, 8-chloro-11-(1-piperazinyl)-5H-dibenzo [b,e] [1,4] diazepine] | 2 | 100 | 112 ± 15% |  | 0.00338 | 158 | 1 | did not significantly retard | 40
